The source of these data is patent US6215002A, “Pyrrolopyrrolone derivatives as inhibitors of neutrophil elastase” (priority 1996, dated 2001).

Where a name gives a salt, the structure may show the parent alone.

This test has as its target T1, human neutrophil elastase (Homo sapiens, UniProt P08246).
T1 sequence (P08246 30-267): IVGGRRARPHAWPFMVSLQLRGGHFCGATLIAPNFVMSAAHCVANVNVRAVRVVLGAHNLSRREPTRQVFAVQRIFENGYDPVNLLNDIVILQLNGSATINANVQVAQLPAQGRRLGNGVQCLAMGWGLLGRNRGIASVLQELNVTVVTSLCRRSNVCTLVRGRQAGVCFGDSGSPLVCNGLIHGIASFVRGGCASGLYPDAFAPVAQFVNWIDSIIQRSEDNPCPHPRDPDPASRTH
Kind of test: In vitro assay of human neutrophil elastase (HNE). The class given is biochemical. As to conditions: 118 nM purified human neutrophil elastase, pH 8.6, 15 min incubation at 30° C., MeO-succinyl-alanyl-alanyl-prolyl-valyl-p-nitroanilide substrate; read-out: HNE IC50. As to the method:
In Vitro Assays of Human Neutrophil Elastase
118 nM purified human neutrophil elastase
Suitable concentrations of compound under test diluted with water from a 10 mM stock solution in dimethylsulphoxide. Values above are final concentrations after the addition of substrate solution (see below).
The mixture above is incubated for fifteen minutes at 30° C. at which time the remaining elastase activity is measured for 10 minutes in a BioTek 340i plate-reader, after the addition of 0.6 mM MeO-succinyl-alanyl-alanyl-prolyl-valyl-p-nitroanilide. The rate of increase in absorbance at 405 nm is proportional to elastase activity. Enzyme activity is plotted against concentration of inhibitor and an IC50 determined using curve fitting software.
1. The compounds were tested in the in vitro elastase test described earlier in the description.
`C=CC[C@H]1C(=O)N(S(=O)(=O)c2ccc3ccccc3c2)[C@H]2CCN(C(=O)OCc3ccccc3)[C@H]12` (relative stereo) [Example 1, rel-(3aS,6R,6aR)-6-Allyl-4-(naphthalene-2-sulfonyl)-5-oxo-hexahydro-pyrrolo[3,2-b]pyrrole-1-carboxylic acid benzyl ester]: the IC50 (usually the midpoint of a concentration-inhibition curve) worked out at 36 nM.
The result for `CCC[C@H]1C(=O)N(S(=O)(=O)c2ccc3ccccc3c2)[C@H]2CCN(C(=O)CN3CCCCC3)[C@H]12` (relative stereo) [Example 3, rel-(3R,3aR,6aS)-1-(Naphthalene-2-sulfonyl)-4-(2-piperidin-1-yl-acetyl)-3-propyl-hexahydro-pyrrolo[3,2-b]pyrrol-2-one] reads 205 nM.
On to `CC[C@H]1C(=O)N(S(=O)(=O)c2ccc3ccccc3c2)[C@H]2CCN(C(=O)OCc3ccccc3)[C@H]12` (relative stereo) [Example 4, rel-(3aS,6R,6aR)-6-Ethyl-4-(naphthalene-2-sulfonyl)-5-oxo-hexahydro-pyrrolo[3,2-b]pyrrole-1-carboxylic acid benzyl ester], for which the IC50 was 134 nM.
The result for `CC[C@H]1C(=O)N(S(=O)(=O)c2ccc3ccccc3c2)[C@H]2CCN(C(=O)CCN3CCCCC3)[C@H]12` (relative stereo) [Example 5, rel-(3R,3aR,6aS)-3-Ethyl-1-(naphthalene-2-sulfonyl)-4-(3-piperidin-1-yl-propionyl)-hexahydro-pyrrolo[3,2-b]pyrrol-2-one hydrochloride] reads 205 nM; that for `C=CC[C@H]1C(=O)N(S(C)(=O)=O)[C@H]2CCN(C(=O)OCc3ccccc3)[C@H]12` (relative stereo) [Example 6, rel-(3aS,6R,6aR)-6-Allyl-4-methanesulfonyl-5-oxo-hexahydro-pyrrolo[3,2-b]pyrrole-1-carboxylic acid benzyl ester], 70 nM; that for `CCC[C@H]1C(=O)N(S(C)(=O)=O)[C@H]2CCN(S(=O)(=O)c3cn(C)cn3)[C@H]12` (relative stereo) [Example 7, rel-(3R,3aR,6aS)-1-Methanesulfonyl-4-(1-methyl-1H-imidazole-4-sulfonyl)-3-propyl-hexahydro-pyrrolo[3,2-b]pyrrol-2-one], 134 nM.
The result for `CCC[C@H]1C(=O)N(S(C)(=O)=O)[C@H]2CCN(S(=O)(=O)CCCN3CCOCC3)[C@H]12` (relative stereo) [Example 8, rel-(3R,3aR,6aS)-1-Methanesulfonyl-4-(3-morpholin-4-yl-propane-1-sulfonyl)-3-propyl-hexahydro-pyrrolo[3,2-b]pyrrol-2-one] reads 29 nM; that for `CCC[C@H]1C(=O)N(S(C)(=O)=O)[C@H]2CCN(S(=O)(=O)CCCN3CCCCC3)[C@H]12` (relative stereo) [Example 9, rel-(3R,3aR,6aS)-1-Methanesulfonyl-4-(3-piperidin-1-yl-propane-1-sulfonyl)-3-propyl-hexahydro-pyrrolo[3,2-b]pyrrol-2-one], 54 nM; that for `CCC[C@H]1C(=O)N(S(C)(=O)=O)[C@H]2CCN(S(=O)(=O)CCCN3CCN(C)CC3)[C@H]12` (relative stereo) [Example 10, rel-(3R,3aR,6aS)-1-Methanesulfonyl-4-[3-(4-methyl-piperazin-1-yl)-propane-1-sulfonyl]3-propyl-hexahydro-pyrrolo[3,2-b]pyrrol-2-one dihydrochloride], 39 nM.
In the case of `CCC[C@H]1C(=O)N(S(=O)(=O)c2ccc3ccccc3c2)[C@H]2CCN(S(=O)(=O)CCCCN3CCOCC3)[C@H]12` (relative stereo) [Example 11, rel-(3R,3aR,6aS)-4-(4-Morpholin-4-yl-butane-1-sulfonyl)-1-(naphthalene-2-sulfonyl)-3-propyl-hexahydro-pyrrolo[3,2-b]pyrrol-2-one], the half-inhibitory concentration (IC50) was determined as 111 nM.
In the case of `CCC[C@H]1C(=O)N(S(=O)(=O)c2ccc3ccccc3c2)[C@H]2CCN(S(=O)(=O)CCCN3CCOCC3)[C@H]12` (relative stereo) [Example 12, rel-(3R,3aR,6aS)-4-(3-Morpholin-4-yl-propane-1-sulfonyl)-1-(naphthalene-2-sulfonyl)-3-propyl-hexahydro-pyrrolo[3,2-b]pyrrol-2-one], the IC50 worked out at 60 nM.
The result for `CCC[C@H]1C(=O)N(S(=O)(=O)c2ccc3ccccc3c2)[C@H]2CCN(S(=O)(=O)CCCN3CCCCC3)[C@H]12` (relative stereo) [Example 13, rel-(3R,3aR,6aS)-1-(Naphthalene-2-sulfonyl)-(3-piperidin-1-yl-propane-1-sulfonyl)-3-propyl-hexahydro-pyrrolo[3,2-b]pyrrol-2-one] reads 543 nM.
As to `CCC[C@H]1C(=O)N(S(=O)(=O)c2ccc3ccccc3c2)[C@H]2CCN(S(=O)(=O)CCCN3CCN(C)CC3)[C@H]12` (relative stereo) [Example 14, rel-(3R,3aR,6aS)-4-[3-(4-Methyl-piperazin-1-yl)-propane-1-sulfonyl-1-(naphthalene-2-sulfonyl)-3-propyl-hexahydro-pyrrolo[3,2-b]pyrrol-2-one], the IC50 stood at 193 nM.
The result for `C=CC[C@H]1C(=O)N(S(=O)(=O)c2cccc3ccccc23)[C@H]2CCN(C(=O)OCc3ccccc3)[C@H]12` (relative stereo) [Example 15, rel-(3sS,6R,6aR)-6-Allyl-4-(naphthalene-1-sulfonyl)-5-oxo-hexahydro-pyrrolo[3,2-b]pyrrole-1-carboxylic acid benzyl ester] reads 10 nM; that for `CCC[C@H]1C(=O)N(S(=O)(=O)c2cccc3ccccc23)[C@H]2CCN(C(=O)C3CCN(C(=O)OC(C)(C)C)CC3)[C@H]12` (relative stereo) [Example 16, rel-(3aS,6R,6aR)-4-[4-(Naphthalene-1-sulfonyl)-5-oxo-6-propyl-hexahydro-pyrrolo[3,2-b]pyrrole-1-carbonyl-carbonyl]-piperidine-1-carboxylic acid tert-butyl], 267 nM; that for `CCC[C@H]1C(=O)N(S(=O)(=O)c2cccc3ccccc23)[C@H]2CCN(C(=O)C3CCNCC3)[C@H]12` (relative stereo) [Example 17, trifluoroacetate], 342 nM.
The result for `C=CC[C@H]1C(=O)N(S(=O)(=O)c2cccc3c(N(C)C)cccc23)[C@H]2CCN(C(=O)OCc3ccccc3)[C@H]12` (relative stereo) [Example 18, rel-(3aS,6R,6aR)-6-Allyl-4-(5-dimethylamino-naphthalene-1-sulfonyl)-5-oxo-hexahydro-pyrrolo[3,2-b]pyrrole-1-carboxylic acid benzyl ester] reads 69 nM.
As for `C=CC[C@H]1C(=O)N(S(=O)(=O)c2ccc3c(c2)CCCC3)[C@H]2CCN(C(=O)OCc3ccccc3)[C@H]12` (relative stereo) [Example 20, rel-(3aS,6R,6aR)-6-Allyl-5-oxo-4-(5,6,7,8-tetrahydro-naphthalene-2-sulfonyl)-hexahydro-pyrrolo[3,2-b]pyrrole-1-carboxylic acid benzyl ester], the IC50 is 57 nM.
Take `C=CC[C@H]1C(=O)N(S(=O)(=O)Cc2ccccc2)[C@H]2CCN(C(=O)OCc3ccccc3)[C@H]12` (relative stereo) [Example 21, rel-3aS,6R,6aR)-6-Allyl-5-oxo-4-phenylmethanesylfonyl-hexahydro-pyrrolo[3,2-b]pyrrole-1-carboxylic acid benzyl ester]: the IC50 stood at 491 nM.
The result for `CCC[C@H]1C(=O)N(S(=O)(=O)c2ccc3ccccc3c2)[C@H]2CCN(S(C)(=O)=O)[C@H]12` (relative stereo) [Example 22, rel-(3R,3aR,6aS)-4-Methanesulfonyl-1-(naphthalene-2-sulfonyl)-3-propyl-hexahydro-pyrrolo[3,2-b]pyrrol-2-one] reads 60 nM; that for `CCC[C@H]1C(=O)N(S(=O)(=O)c2ccc3ccccc3c2)[C@H]2CCN(S(=O)(=O)Cc3cccc(-c4nnn[nH]4)c3)[C@H]12` (relative stereo) [Example 23, rel-(3R,3aR,6aS)-1(Naphthalene-2-sulfonyl)-3-propyl-4-[3-(1H-tetrazol-5-yl)-phenylmethanesulfonyl]-hexahydro-pyrrolo[3,2-b]pyrrole-2-one], 75 nM; that for `CCC[C@H]1C(=O)N(S(=O)(=O)c2ccc3ccccc3c2)[C@H]2CCN(C(C)=O)[C@H]12` (relative stereo) [Example 24, rel-(3R,3aR,6aS)-4-Acetyl-1-(naphthalene-2-sulfonyl)-3-propyl-hexahydro-pyrrolo[3,2-b][pyrrol-2-one], 9 nM.
As to `CCC[C@H]1C(=O)N(S(=O)(=O)c2ccc3ccccc3c2)[C@H]2CCN(C(=O)CCCN(C)C)[C@H]12` (relative stereo) [Example 25, rel-(3R,3aR,6aS)-4-(4-Dimethylamino-butyryl)-1-(naphthalene-2-sulfonyl)-3-propyl-hexahydro-pyrrolo[3,2-b]-pyrrol-2-one], the IC50 is 59 nM.
As for `CCC[C@H]1C(=O)N(S(C)(=O)=O)[C@H]2CCN(S(C)(=O)=O)[C@H]12` (relative stereo) [Example 26, rel-(3R,3aR,6aS)-1,4-Bis-methanesulfonyl-3-propyl-hexahydro-pyrrolo[3,2-b]pyrrol-2-one], the IC50 came out at 20 nM.
